Measurements as given in PubChem BioAssay (NCI).
“And” between values parts separate entries of the source, which are not always exact repeats. Equal values may be shown once.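 In this assay, cells in 96-well plates receive the compound at five concentrations for 48 hours. Endpoints are linearly interpolated between the surrounding concentrations. GI50 marks 50% less growth. TGI denotes the concentration required for complete inhibition of growth.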

How the values were obtained:
Assay in all cases: inhibition of tumour cell growth, NCI panel, 48 h
[1] = system: SNB-19 CNS
[2] = system: LOX IMVI melanoma
[3] = system: SNB-75 CNS
[4] = system: UACC-62 melanoma
[5] = system: K-562 leukemia
[6] = system: RXF 393 renal
[7] = system: CCRF-CEM leukemia
[8] = system: UACC-257 melanoma
[9] = system: NCI-H226 lung
[10] = system: COLO 205 colon

Compound | GI50 [1] | TGI [1] | GI50 [2] [µM] | TGI [2] | GI50 [3] | TGI [3] | GI50 [4] | TGI [4] | GI50 [5] [µM] | TGI [5] [µM] | GI50 [6] | TGI [6] | GI50 [7] [µM] | TGI [7] | GI50 [8] | TGI [8] | GI50 [9] | TGI [9] | GI50 [10] | TGI [10]
COCCOc1cnc2ccn([C@H](C)c3nnc4c(F)cc(-c5cnn(C)c5)cn34)c(=O)c2c1 | > 100 µM | > 100 µM | > 100 | > 100 µM | 34.9 µM | > 100 µM | 56.4 µM | > 100 µM | > 100 | > 100 | > 100 µM | > 100 µM | > 100 | > 100 µM | > 100 µM | > 100 µM | > 100 µM | > 100 µM | > 100 µM | > 100 µM
C1C[OH+]CCNCC[OH+]CC[OH+]CCN1.[Cl-].[Pt+4] | > 100 µM | > 100 µM | > 100 | > 100 µM | > 100 µM | > 100 µM | > 100 µM | > 100 µM | > 100 | > 100 | > 100 µM | > 100 µM | 51.4 | > 100 µM | > 100 µM | > 100 µM | > 100 µM | > 100 µM | > 100 µM | > 100 µM
O=c1[nH]c2cc(Cl)ccc2nc1/C(=N\O)C(O)c1ccc(Cl)cc1Cl (stereo not drawn) | – | > 100 µM | – | > 100 µM | – | > 100 µM | – | > 100 µM | – | > 100 | – | > 100 µM | – | > 100 µM | – | > 100 µM | – | > 100 µM | – | > 100 µM
Cn1cc(C2=C(c3cn(CCCCCN)c4ccccc34)C(=O)NC2=O)c2ccccc21 | > 25 µM | > 25 µM | 4.9 | 13.5 µM | 1.08 µM | > 25 µM | 10.3 µM | > 25 µM | 9.14 | > 25 | 3.66 µM | 9.47 µM | 5.58 | > 20.6 µM | 23.1 µM | > 25 µM | > 25 µM | > 25 µM | 6.06 µM | > 21 µM
O=C(/C=C/c1cc(CN2CCOCC2)c(O)c2ncccc12)c1cc(CN2CCOCC2)c(O)c2ncccc12 | 0.0482 µM | > 100 µM | 0.0394 | > 100 µM | 0.0595 µM | 42.6 µM | 0.0457 µM | – | < 0.0114 | > 100 | 0.14 µM | 14.3 µM | 0.05 | > 100 µM | 0.202 µM | 8.88 µM | 0.43 µM | 41.8 µM | 0.0842 µM | > 100 µM
C=C1C(=O)O[C@H]2[C@H]1CC/C(COC(=O)c1ccc(Cl)nc1)=C\CC[C@@]1(C)O[C@@H]21 | 7.55 µM | 20.1 µM | 1.58 | 3.33 µM | 12.4 µM | 31.6 µM | 1.63 µM | 3.74 µM | 2.19 | 12.2 | 1.04 µM | 2.31 µM | 1.22 | 6.9 µM | 1.83 µM | 4.17 µM | 2.66 µM | 6.78 µM | 1.74 µM | 3.96 µM
COc1cc2c3c(n(CCCN(C)C)c(=O)c2cc1OC)-c1ccccc1C3=O | 8.28 µM | > 71.3 µM | 4.66 | 19.2 µM | 6.9 µM | > 100 µM | 1.48 µM | 19.1 µM | 4.39 | 24.4 | 6.68 µM | 24.7 µM | 0.24 | 1.73 µM | > 100 µM | > 100 µM | 18.6 µM | > 100 µM | 1.04 µM | > 100 µM
Nc1nc(SN=Nc2ccc(S(N)(=O)=O)cc2)c2[nH]cnc2n1 | > 78.6 µM | > 100 µM | 0.219 | 12.6 µM | 0.354 µM | > 21.7 µM | 0.379 µM | 5.62 µM | 0.299 | > 100 | 0.394 µM | 5.52 µM | 0.268 | > 100 µM | 1.62 µM | > 100 µM | 0.867 µM | > 100 µM | 1.42 µM | 3.6 µM
O=C(Nc1ccc(Br)cc1)c1ccc(Cl)c(Cl)c1 | 3.87 µM | > 100 µM | 2.56 | 7.67 µM | 3.2 µM | > 31 µM | 2.92 µM | > 100 µM | 3.99 | > 100 | > 28 µM | > 100 µM | 4.81 | > 100 µM | 3.69 µM | > 89.2 µM | 2.86 µM | > 100 µM | 1.81 µM | 3.7 µM
Cc1cn2c(/C=C3\C(=O)N(C)c4ccc(O)cc43)c(C)nc2s1 | 3.64 µM | 39.1 µM | 7.51 | > 100 µM | 2.86 µM | 10.2 µM | 7.61 µM | > 100 µM | 2.01 | 20.6 | 36 µM | > 100 µM | 6 | > 100 µM | > 100 µM | > 100 µM | 52.1 µM | > 100 µM | 4.29 µM | 27.5 µM
COc1cc2c(c(OC)n1)[C@]1(O)[C@H](O)[C@H](CN(C)C)[C@@H](c3ccccc3)[C@]1(c1ccc(C#N)cc1)O2 | 0.0111 µM and 0.0104 µM | 3.8 µM and 4.21 µM | < 0.01 | 0.0153 µM and 0.0133 µM | 0.1 µM and 0.047 µM | 4.58 µM and 2.02 µM | 0.0359 µM and 0.0358 µM | 2.63 µM and 4.34 µM | < 0.01 | – | 0.0359 µM and 0.0195 µM | 0.502 µM and 0.103 µM | < 0.01 | > 52.7 µM and 13.6 µM | 0.0417 µM and 0.0427 µM | 2.45 µM and 2.12 µM | 0.0254 µM and < 0.0131 µM | 4.34 µM and 1.28 µM | 0.0114 µM and < 0.0111 µM | 0.0442 µM and 0.0572 µM
CC1CCC(=O)C(C(=O)CC2CC(=O)NC(=O)C2)C1 (stereo not drawn) | – | > 100 µM | – | > 100 µM | – | > 100 µM | – | > 100 µM | – | > 100 | – | > 100 µM | – | > 100 µM | – | > 100 µM | – | > 100 µM | – | > 100 µM
